These results are taken from US20240180887A1, “USE OF PPAR(gamma) AGONISTS OR MPC INHIBITORS FOR TREATING PRIMARY, INNATE DISEASES OF THE CARDIAC MUSCLE (CARDIOMYOPATHIES)” (PREVENTAGE THERAPEUTICS GMBH, priority 2021, published 2024).

Assay [1] has as its system radical oxygen species (ROS). Kind of assay: Radical oxygen species (ROS) in left ventricular myocardium by electron paramagnetic resonance spectroscopy. Type of assay: in vivo, mouse. Conditions: αMHC^719/+ mice treated with pioglitazone vs untreated HCM mice, 6 weeks, p=0.053. From the text:
Reduction of oxidative stress: The treatment with PPARγ agonists leads to reduced expression of hypoxia-inducible factor 1-alpha, a major transcription factor in the redox signaling pathway. As a result, less radical oxygen species are produced in the left ventricular myocardium, thereby reducing cellular oxidative stress. A protective effect on the pathological remodeling of the cardiac muscle was observed.
Electron paramagnetic resonance (EPR) was applied as described in order to calculate the production of radical oxygen species (ROS) in the left ventricular myocardium^46-48. […] The analysis of ROS generation was carried out at 37° C. for 10 minutes with 20 scans in an Escan EPR spectrometer under temperature control (Noxygen) and the following parameters: microwave power 23.89 mW; center field 3459-3466 G; steep width 10 G, frequency 9.7690 GHz and modulation amplitude 2.93 G. ROS generation was calculated by means of linear regression and normalized to the cellular protein content.

In assay [2] the test system is Acta1, Col1a1, Col1a2, Cyba, Gdf15, Hif1a, Icam1, IL33, Mmp2, Nfkb1, Nox4, Nppa, Postn, Tgfb1, Tgfb2, Tgfb3. The assay is described as follows: mRNA expression of pro-hypertrophic, pro-fibrotic and pro-inflammatory genes in left ventricular myocardium (RNA sequencing). It counts as in vivo, mouse. Conditions: αMHC^719/+ mice treated with pioglitazone vs untreated, p<0.001. The procedure: FIG. 8 The mRNA expression of pro-hypertrophic, pro-fibrotic, and pro-inflammatory genes such as Acta1, Col1a1, Col1a2, Cyba, Gdf15, Hif1a, Icam1, IL33, Mmp2, Nfkb1, Nox4, Nppa, Postn, Tgfb1, Tgfb2, and Tgfb3 is increased in the left ventricular myocardium of αMHC^719/+ HCM mice (HET) compared to wild-type mice (WT) (HET/WT). […] Strand-specific, polyA-enriched RNA sequencing was carried out as described above^51. The RNA was isolated using the AllPrep RNA Kit (Qiagen). The RNA integrity number (RIN) was determined using the Agilent 2100 BioAnalyzer (RNA 6000 Nano Kit, Agilent). In order to prepare the library, 1 μg RNA was poly(A)-selected, fragmented, and reverse-transcribed with the Elute, Prime, Fragment Mix (Illumina). […] RNA libraries were tested for quality and quantity using the Agilent 2100 BioAnalyzer and the Quant-iT PicoGreen dsDNA Assay Kit (Life Technologies). […] The STAR Aligner (version 2.4.2a)^52 with modified parameter settings (--twopassMode=Basic) was used for the split-read alignment against the […] genome assembly hg19 (GRCh37) and the UCSC knownGene annotation. HTseq-count (version 0.6.0)^53 was used to quantify the number of reads mapped to annotated genes. FPKM values (fragments per kilobase of transcript per million fragments mapped) were calculated using custom scripts. […]

Assay [3] concerns cardiac myosin. Kind of assay: Mant-ATP assay of left ventricular cardiac myosins (DRX vs SRX state). Type of assay: in vivo, mouse. Conditions: αMHC^719/+ mice treated with pioglitazone vs untreated αMHC^719/+ mice. From the text:
FIG. 5 Examination of the percentages of left ventricular cardiac myosins in the DRX (disordered relaxation) compared to the SRX (super-relaxed) state using a fluorescent ATP analog. […] The treatment of the HCM mouse model with pioglitazone thus also has a positive effect on the functional properties of the left ventricular heart muscle tissue. The results of this Mant-ATP assay indicate that it was possible to prevent the changes in the biophysical properties of the myosins, which are described as being the cause of hypertrophic cardiomyopathy, in the mice treated with pioglitazone.
Cardiac myosin ATPase activity was measured by Mant-ATP assay, which examines cardiomyocyte contractility and relaxation indirectly by measuring the activity of cardiac myosin ATPase. For this purpose, the Mant-ATP assay (Roche) was applied in the left ventricular myocardium of the different mouse groups, which was shock-frosted in liquid nitrogen and stored in frozen state at −80° C. Mant-ATP is a fluorescent, […] ATP that binds the head of the cardiac myosin. The assay measures the release of Mant-ATP after addition of ATP^44,45.

In assay [4] the test system is αMHC^719/+ HCM mouse model. Kind of assay: Preclinical αMHC^719/+ HCM mouse model, overall summary of results. It counts as in vivo. Conditions: oral administration in the αMHC^719/+ HCM mouse model. The procedure:
The examinations were carried out on an established HCM mouse model, in which an arginine-to-tryptophan mutation at position 719 of the heavy chain of the cardiac mouse alpha-myosin gene was effected by homologous recombination (referred to as αMHC^719/+)^38. Such genetically modified mice increasingly develop the typical pathognomonic disease characteristics of hypertrophic cardiomyopathy such as myocardial hypertrophy and fibrosis with increasing age. The phenotype of this genetically generated HCM mouse model thus simulates the phenotype of HCM patients affected^36,37,38. The manifestation of the disease can be accelerated by subcutaneous administration of the calcineurin inhibitor cyclosporin A (CsA)^9.
Between their 6th and 12th postnatal week, all mice were injected subcutaneously with cyclosporin A (CsA) to accelerate hypertrophic remodeling in the myocardium in the HCM mouse model^9. Half of the mice were treated with the PPARγ agonists rosiglitazone and pioglitazone from the group of thiazolidinediones between their 6th and 12th postnatal week. In their 12th postnatal week, they were subjected to in vivo transthoracic echocardiography. The animals were then euthanized for ex vivo examination (organ removal, histopathology, and determination of radical oxygen species, of mRNA and protein expression in the tissue) (see FIG. 10).D

Assay [5] relates to HCM mice (αMHC^719/+). The assay is described as follows: Heart-to-body weight ratio ex vivo after organ removal. Conditions: αMHC^719/+ mice, pioglitazone 10 mg/kg of body weight/day orally, 6 weeks, vs untreated αMHC^719/+ mice, p=0.008. It counts as in vivo, mouse. The procedure:
The mice were weighed and euthanized to calculate the heart-to-body weight ratio. The thorax was opened quickly, and the heart was removed and washed twice in cold PBS solution. The large vessels and connective tissue were removed, the heart was swapped dry and weighed, and the heart and body weight of the mouse were determined.

Assay [6] relates to HCM mice (αMHC^719/+). The assay is described as follows: Histopathology of left ventricular myocardium, Masson's trichrome (myocardial fibrosis), experimental setup A. Type of assay: in vivo, mouse. From the text:
FIG. 6 Histopathology of the left ventricular myocardium of wild-type (WT) and HCM mice (αMHC^719/+) with and without treatment with pioglitazone (PIO) after 6 weeks; myocardial fibrosis appears in medium gray in the Masson's trichrome-stained histological sections. […] HCM mice show massive myocardial fibrosis (white arrows in (C)).
In order to quantify myocardial fibrosis, the removed hearts were fixed in 4% paraformaldehyde, dehydrated, and placed in paraffin, as described above^37,42,43. 5-μm sections were stained with Masson's trichrome and hematoxylin-eosin. The extent of myocardial fibrosis was quantified by a digitized method by calculating the percentage of cardiac muscle portions stained blue with Masson's trichrome in relation to the overall stained cardiac muscle. Perivascular and intramurine structures, the endocardium, or trabeculas were excluded in the calculation of the percentage of fibrosis.

“Also recorded” adds a separate entry of the source.

Consider `CCc1ccc(CCOc2ccc(CC3SC(=O)NC3=O)cc2)nc1` (racemic) [pioglitazone, (RS)-5-{p-[2-(5-ethyl-2-pyridyl)ethoxy]benzyl}-2,4-thiazolidinedione], for which the “production of radical oxygen species in the left ventricular myocardium” value in assay [1] is “significantly decreased”; in assay [1] (listed as poglitazone), “significantly reduced”. Moreover, the “overexpression of pro-hypertrophic, pro-fibrotic and pro-inflammatory genes (HET+PIO/HET)” value in assay [2] is listed as “significantly reduced or completely prevented; also recorded: prevents”. In addition, in assay [3], the “percentages of left ventricular cardiac myosins in the DRX compared to the SRX state” value is “significant shift towards the SRX state; also recorded: prevents the functional biophysical changes”. For the same compound, the “changes in biophysical properties in the heart muscle cell and onset of myocardial hypertrophy and fibrosis” value in assay [4] is “largely prevents”. The “development of myocardial hypertrophy (heart-to-body weight ratio ex vivo)” value in assay [5] is listed as “completely inhibited”. Besides, the “myocardial fibrosis in wild-type mice” value in assay [6] (wild-type mice with treatment with pioglitazone, 6 weeks) is “hardly any fibrosis”. For the same compound, the “formation of myocardial fibrosis (histological sections)” value in assay [6] (αMHC^719/+ mice, pioglitazone 10 mg/kg of body weight/day orally, 6 weeks) was “almost completely prevents the formation of myocardial fibrosis”. Besides, in assay [6] (αMHC^719/+ mice, pioglitazone 10 mg/kg/day orally vs untreated HCM mice, p=0.017), the “fibrosis after semi-automated threshold detection of collagen (ImageJ)” value is “significantly less fibrosis”.
